The target in the assay is T1, Glutaminase kidney isoform, mitochondrial (Homo sapiens, UniProt O94925).
T1 sequence (O94925 whole entry): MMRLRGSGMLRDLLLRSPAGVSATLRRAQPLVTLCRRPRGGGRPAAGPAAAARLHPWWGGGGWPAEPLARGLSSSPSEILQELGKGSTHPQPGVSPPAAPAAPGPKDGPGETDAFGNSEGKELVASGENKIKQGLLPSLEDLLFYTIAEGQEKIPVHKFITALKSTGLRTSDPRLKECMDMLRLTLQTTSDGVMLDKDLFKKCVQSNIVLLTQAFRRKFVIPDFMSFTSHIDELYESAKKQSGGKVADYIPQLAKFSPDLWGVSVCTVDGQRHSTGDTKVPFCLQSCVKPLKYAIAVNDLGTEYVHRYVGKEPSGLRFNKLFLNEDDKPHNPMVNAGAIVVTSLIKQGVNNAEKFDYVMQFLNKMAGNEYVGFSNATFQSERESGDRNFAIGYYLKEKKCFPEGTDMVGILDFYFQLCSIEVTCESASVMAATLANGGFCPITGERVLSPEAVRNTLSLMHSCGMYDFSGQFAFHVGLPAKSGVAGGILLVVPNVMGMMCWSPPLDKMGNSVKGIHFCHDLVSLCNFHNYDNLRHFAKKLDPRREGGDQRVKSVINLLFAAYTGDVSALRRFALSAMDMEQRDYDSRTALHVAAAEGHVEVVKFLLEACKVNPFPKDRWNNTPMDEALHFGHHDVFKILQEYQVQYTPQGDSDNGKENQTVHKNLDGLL
Briefly: Enzymatic Activity Assay: The inhibition of purified recombinant human GAC by varying concentrations of inhibitors is assessed via a dual-coupled enzymatic assay. The glutamate produced by the glutaminase reaction is used by glutamate oxidase to produce α-ketoglutarate, ammonia, and hydrogen peroxide, with this hydrogen peroxide subsequently being used by horseradish peroxidase to produce resorufin in the presence of Amplex UltraRed. The assay buffer consisted of 50 mM Hepes (pH 7.4), 0.25 mM EDTA and 0.1 mM Triton X-100. GAC was incubated with potassium phosphate (10 minutes at room temperature) prior to incubation with inhibitor (10 minutes at room temperature). The final reaction conditions were as follows: 2 nM GAC, 50 mM potassium phosphate, 100 mU/mL glutamate oxidase (Sigma), 1 mM glutamine (Sigma), 100 mU/mL horseradish peroxidase (Sigma), 75 μM Amplex UltraRed (Life Technologies), and 1% (v/v) DMSO. The production of resorufin was monitored on a Perkin Elmer Envision plate reader (excitation 530 nm, emission 590 nm) either in a kinetics or endpoint mode (at 20 minutes). IC50 values were calculated using a four-parameter logistic curve fit.

A word on the IC50: it is the concentration needed to halve the response being measured.

Turning to `COc1cncc(CNC(=O)c2cn(CC(F)CCc3nnc(NC(=O)Cc4cccc(OC(F)(F)F)c4)s3)nn2)c1` (stereo not drawn), the IC50 was less than 100 nM.
Turning to `O=C(NCc1cccc(OC(F)(F)F)c1)c1cn(CCCCn2cc(C(=O)NCc3ccc(C(F)(F)F)cn3)nn2)nn1`, the IC50 was less than 100 nM.
In the case of `O=C(NCc1cc(C2CC2)ccn1)c1cn(CCC(F)Cn2cc(C(=O)NCc3cccc(C4CC4)c3)nn2)nn1` (stereo not drawn), the IC50 is less than 100 nM.

(Values after ChEMBL document CHEMBL5727188, “GLS1 inhibitors for treating disease” (2019).)
